Reference: US7115662B2, “Certain 5-alkyl-2-arylaminophenylacetic acids and derivatives” (Novartis AG, priority 1997, dated 2006)

Columns and labels:
[1] = system: gross gastric ulceration; test: gastric tolerability assay; format: in vivo; conditions: rat; 100 mg/kg p.o.; four hours after administration
Procedure: The gastric tolerability assay is used to assess gross ulceration in the rat, measured four hours after oral administration of the test compound. The test is carried out as follows: Rats are fasted overnight, administered compound in fortified cornstarch vehicle by gavage, and sacrificed by carbon dioxide inhalation four hours later. The stomachs are removed and gross gastric lesions counted and measured to give the total lesion length per rat. Each experiment contains the following groups (5–6 rats per group): vehicle control, test compounds, and diclofenac as a reference compound. Data are calculated as the mean number of ulcers in a group, the mean length of ulcers (mm) in the group and as the ulcer index (UI). UI=mean length of ulcers in a group×ulcer incidence where ulcer incidence is the fraction of animals in the group with lesions (100% incidence is 1).

[2] = molecular target: T1, cyclooxygenase-1 (COX-1) (Homo sapiens, UniProt P23219); test: cellular COX-1 inhibition assay (293 cells stably transfected with COX-1, PGE2 radioimmunoassay); format: cell-based; conditions: 293 cells expressing COX-1; 30 μM compound
T1 construct: expressed in transfected cells; host or cells: human kidney epithelial cell line 293, stably transfected
T1 sequence (P23219 24-599, species assumed): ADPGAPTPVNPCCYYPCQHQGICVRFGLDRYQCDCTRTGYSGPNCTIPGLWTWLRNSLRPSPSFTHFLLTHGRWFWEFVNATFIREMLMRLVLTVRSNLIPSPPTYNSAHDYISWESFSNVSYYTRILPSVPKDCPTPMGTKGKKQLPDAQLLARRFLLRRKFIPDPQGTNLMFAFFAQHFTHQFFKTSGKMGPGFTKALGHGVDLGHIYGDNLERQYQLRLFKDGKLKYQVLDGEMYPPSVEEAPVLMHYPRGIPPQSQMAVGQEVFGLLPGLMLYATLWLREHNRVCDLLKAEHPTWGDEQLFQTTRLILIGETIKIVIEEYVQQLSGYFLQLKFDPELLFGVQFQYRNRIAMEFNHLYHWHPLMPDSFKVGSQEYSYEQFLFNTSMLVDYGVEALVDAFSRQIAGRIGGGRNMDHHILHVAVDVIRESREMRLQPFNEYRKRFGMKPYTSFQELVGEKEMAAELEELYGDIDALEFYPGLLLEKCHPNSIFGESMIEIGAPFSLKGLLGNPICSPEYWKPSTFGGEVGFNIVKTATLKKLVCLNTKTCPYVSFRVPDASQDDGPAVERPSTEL
Procedure: (§1) Cyclooxygenase inhibition is determined in vitro using cellular assays for inhibition of both cyclooxygenase-1 and cyclooxygenase-2.
(§2) The cellular assays for testing cyclooxygenase inhibitors are based on the fact that the cyclooxygenase enzyme (prostaglandin H synthase) catalyzes the rate limiting step in prostaglandin synthesis from arachidonic acid. Two enzymes mediate the reaction: COX-1 is a constitutive form of the enzyme whereas COX-2 is induced in response to various growth factors and cytokines. Cell lines have been established which express one form of the enzyme: a human skin fibroblast line which can be induced with IL-1 to synthesize COX-2, and the kidney epithelial cell line 293 which has been stably transfected to constitutively express COX-1. Both isoforms metabolize arachidonic acid into the stable metabolite prostaglandin E2. Arachidonic acid can be added exogenously to increase output to easily measurable levels. The levels of prostaglandin E2 in the extracellular medium are assayed by radioimmunoassay as a measure of enzyme activity. The relative activities of each isoform are compared to assess compound selectivity.
(§3) In vitro cyclooxygenase-1 (COX-1) and cyclooxygenase-2 (COX-2) inhibition is determined in the cell-based assays in order to assess the in vitro activity and selectivity for COX-2 inhibition, using a prostaglandin E2 radioimmunoassay. The cells utilized are primary human fibroblasts induced with interleukin-1 to produce COX-2, and the human kidney epithelial cell line 293 stably transfected to produce COX-1 constitutively. Cells are plated out into well plates in which the assay is performed. Fibroblasts are stimulated to synthesize COX-2 by treatment overnight with IL-1; the 293 cells require no induction. Both cell lines are pre-treated with compound dilutions for 15 minutes at 37° C., then 40 μM arachidonic acid is added as exogenous substrate for the production of PGE2, which is measured in supernatant by radioimmunoassay. […]

[3] = system: intestinal permeability; test: intestinal tolerability (51Cr-EDTA intestinal permeability); format: in vivo; conditions: rat; 30 mg/kg p.o.; 51Cr-EDTA urinary excretion over 24 h
Procedure: Intestinal tolerability can be determined by measuring the effect on intestinal permeability. Lack of increase in permeability is indicative of intestinal tolerability. The method used is a modification of a procedure by Davies, et al., Pharm. Res. 1994; 11:1652–1656 and is based on the fact that excretion of orally administered ^51Cr-EDTA, a marker of small intestinal permeability, is increased by NSAIDs. Groups of rats (≧12/group) are administered a single, oral dose of test compound or vehicle by gastric intubation. Immediately following compound dose, each rat is administered ^51Cr-EDTA (5 μCi/rat) by gastric intubation. The rats are placed in individual metabolic cages and given food and water ad libitum. Urine is collected over a 24 hour period. Twenty-four hours after administration of ^51Cr-EDTA the rats are sacrificed. To quantify compound effect on intestinal permeability, the excreted ^51Cr-EDTA measured in the urine of compound treated rats is compared to the excreted ^51Cr-EDTA measured in the urine of vehicle treated rats. Relative permeability is determined by calculating the activity present in each urine sample as a percent of the administered dose after correcting for background radiation.

[4] = molecular target: T2, cyclooxygenase-2 (COX-2) (Homo sapiens, UniProt P35354); test: cellular COX-2 inhibition assay (IL-1 induced human fibroblasts, PGE2 radioimmunoassay); format: cell-based; conditions: primary human fibroblasts induced with IL-1, 40 μM arachidonic acid
T2 construct: endogenous in cells; host or cells: primary human skin fibroblasts induced with IL-1
T2 sequence (P35354 18-604): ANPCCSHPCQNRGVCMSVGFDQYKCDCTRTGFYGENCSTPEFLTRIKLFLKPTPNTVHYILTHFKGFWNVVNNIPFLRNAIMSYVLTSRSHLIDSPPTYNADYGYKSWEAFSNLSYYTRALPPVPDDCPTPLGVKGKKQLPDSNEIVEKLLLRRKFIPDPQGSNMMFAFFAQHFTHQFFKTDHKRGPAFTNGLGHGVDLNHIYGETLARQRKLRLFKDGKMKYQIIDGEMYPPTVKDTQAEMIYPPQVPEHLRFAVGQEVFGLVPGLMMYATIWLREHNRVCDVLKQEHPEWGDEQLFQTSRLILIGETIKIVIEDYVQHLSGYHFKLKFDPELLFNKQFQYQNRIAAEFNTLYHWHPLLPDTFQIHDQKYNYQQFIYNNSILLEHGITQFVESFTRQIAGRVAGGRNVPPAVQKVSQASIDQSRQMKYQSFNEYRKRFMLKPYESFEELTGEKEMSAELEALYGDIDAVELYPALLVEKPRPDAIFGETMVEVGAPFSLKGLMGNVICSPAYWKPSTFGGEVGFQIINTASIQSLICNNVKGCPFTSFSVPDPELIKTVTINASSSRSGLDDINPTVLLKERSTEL
Procedure: as §1, §2, §3

[5] = system: pain threshold in yeast-inflamed paw; test: Randall-Selitto paw pressure assay; format: in vivo, rat; conditions: male Wistar rats; 10 mg/kg orally; 1 h after dosing
Procedure: The analgesic activity of the compounds of the invention is determined using the well-known Randall-Selitto assay.
The Randall-Selitto paw pressure assay measures antinociception (analgesic activity) in inflamed tissue by comparing the pressure threshold in the inflamed paw of the rat after oral administration of test drug with that in the inflamed paw of rats administered corn starch vehicle orally.
Groups of 10 male Wistar rats weighing 40–50 gms are fasted overnight prior to testing. Hyperalgesia is induced by the injection of 0.1 ml of a 20% suspension of Brewer's yeast with a 26 gauge needle into the subplantar region of the right hindpaw. The left paw is not injected and is used as the control paw for determination of hyperalgesia. Vehicle (Fortified corn starch suspension 3%) at 10 ml/kg, reference compound (diclofenac is run in every experiment at the same dose as test compounds) and test compounds at different doses suspended in vehicle at 10 ml/kg are administered orally 2 hours after the yeast injection. The threshold for paw withdrawal is quantified with a Basile Analgesy-meter 1 hour after oral administration of test compounds. The nociceptive threshold is defined as the force in grams at which the rat withdraws its foot or vocalizes. Either vocalization or foot withdrawal is recorded as a response.
The data are analyzed by comparing the mean pain threshold of the corn starch vehicle-treated group for the inflamed and non-inflamed paws to that of individual drug-treated rats. Individual rats in the drug-treated groups and positive control (diclofenac) group are called reactors if the individual pain threshold in each paw exceeds the control group mean threshold by two standard deviations of that mean. The mean pain thresholds of the inflamed paw in the control group are compared to the individual pain thresholds of the inflamed paw in the test drug group. The non-inflamed control mean pressure threshold is compared to the non-inflamed individual pressure thresholds in the test groups. Results are expressed as number of reactors in each test group (n=10) for inflamed and non-inflamed paws. Percentages are calculated by dividing number of reactors by total number of rats used for a compound.

| COX-1 inhibition at 30 μM [2] | IC50 [4] | melting point | SMILES | gastric ulcerogenic effect [1] | effect on intestinal permeability [3] | pain threshold in the inflamed paw [5] | pain threshold in the non-inflamed paw [5] |
| --- | --- | --- | --- | --- | --- | --- | --- |
| no significant COX-1 inhibition | ~130 nM | – | Cc1ccc(Nc2c(F)cccc2Cl)c(CC(=O)O)c1 [1(d), 5-methyl-2-(2′-chloro-6′-fluoroanilino)phenylacetic acid] | essentially free of any gastric ulcerogenic effect | no effect or only a minimal effect | increase the pain threshold | no threshold elevation |
| no significant COX-1 inhibition | ~7 nM | – | CCc1ccc(Nc2c(F)c(F)cc(F)c2F)c(CC(=O)O)c1 [3(a), 5-ethyl-2-(2′, 3′,5′,6′-tetrafluoroanilino)phenylacetic acid] | essentially free of any gastric ulcerogenic effect | no effect or only a minimal effect | increase the pain threshold | no threshold elevation |
| no significant COX-1 inhibition | ~250 nM | 157 to 159 °C | Cc1ccc(Nc2c(F)cc(F)cc2Cl)c(CC(=O)O)c1 [Example 1(g), 5-methyl-2-(2′,4′-difluoro-6′-chloroanilino)phenylacetic acid] | essentially free of any gastric ulcerogenic effect | no effect or only a minimal effect | increase the pain threshold | no threshold elevation |
